# Reference: US9422235B2, “Sulfonamide derivatives with therapeutic indications” (Pharmos Corporation, priority 2006, dated 2016)
# Where two headings read alike, the source gives them in different places.
# Legend:
# human CB2 receptor = human CB2 receptor (Homo sapiens (Human), UniProt P34972); experiment: [35S]GTPγS-binding assay, functional activity at the human CB2 receptor; type: biochemical; details: Cell line C2-4
# Method: Functional activity of compounds of the invention toward the cannabinoid receptors was determined by stimulation of [^35S]-GTPγS binding using membranes from HEK-293 cells expressing the hCB1 receptor and membranes expressing the hCB2 receptor derived from either Sf9 (PerkinElmer) or from HEK-293 cells. Activities were compared to that of the known cannabinoid full agonist CP55940 (Alexis). The purpose of this experiment is to determine the potency of the compounds of the invention as agonists or antagonists toward each of the receptor tested.
# [^35]-GTPγS binding reactions were performed at 30° C. in 96-well plates containing 5-10 μg membrane protein suspended in 0.1 ml binding buffer (20 mM HEPES-NaOH, pH 7.4, 5 mM MgCl2, 100 mM NaCt, 0.2% (w/v) bovine serum albumin) supplemented with 50 μM GDP and 0.06 nM-10 μM of the compound being tested. Binding was initiated by the addition of [^35S]GTPγS (0.3 nM final concentration). Incubations were performed for 90 minutes and were terminated by filtration on GF/C filter plates (PerkinElmer). Filters were washed ten times with ice-cold wash buffer (20 mM HEPES-NaOH, pH 7.4, 10 mM sodium pyrophosphate). Non-specific binding was measured in the presence of 15 μM GTPγS.
# Assays were performed in duplicates. Data was analyzed by plotting on the X axis the log concentration against percent of specific [^35S]GTPγS binding out of basal [^35S]GTPγS binding on the Y axis, non-linear regression is then performed using GraphPad Prism, version 3.0 (GraphPad, San Diego, Calif.) to calculate the EC50 and Emax of the compound. The EC50 value represents the concentration at which there is 50% [^35S]GTPγS binding and the Emax value the upper plateau of the curve.
# CP55940 is a full agonist of the human and rat CB2 receptors. […] Full or partial agonism at the receptor was determined relative to the Emax value of CP55940.
# Male Sprague Dawley rats [1] = experiment: CFA-induced acute inflammatory pain, mechanical stimulus (Dynamic Plantar Aesthesiometer); type: in vivo, rat; details: three hours post administration
# Method: Acute Inflammatory Pain. The purpose of this study is to test the analgesic activity of the compounds in inflammatory pain. Inflammatory pain is nociceptive in nature, wherein the pain sensation is often perceived for longer period than in acute pain. In the present model the duration of the preventive activity of compounds against inflammatory acute pain was assessed for up to about three hours post-drug administration. Inflammatory pain and paw edema were induced by intraplantar injection of 50% Complete Freund's Adjuvant (CFA) suspension in the animal hind paw. […]
# Prior to, 24 hours post induction of inflammatory pain and one and three hours after drug administration, the animals reactions to pain stimuli were tested by mechanical stimulus. The mechanical (tactile) analgesia was assessed using a Dynamic Plantar Aesthesiomether (Ugo Basile Model 73400-002). […]
# The results are presented as the force needed for hind paw withdrawal before surgery, 24 hours post surgery and 1 and 3 hours post drug administration. Results are expressed as mean±SEM for each treatment group and the differences among those groups are analyzed by analysis of variance (ANOVA). […]
# The baseline values for the force to be applied for left hind paw withdrawal following mechanical stimuli is about 30 gram before inflammatory pain induction. […] Results, expressed as Force measured in grams, are depicted in FIG. 3.
# Male Sprague Dawley rats [2] = experiment: Chronic constriction induced (CCI) model of neuropathic pain, mechanical hyperalgesia; type: in vivo, rat; details: 10 mg/kg, s.i.d, 14 days
# Method: The analgesic activity of compounds of the invention is assessed in a chronic constriction induced (CCI) model of neuropathic pain. A peripheral neuropathy is induced in the left hind limb of rats following a chronic constriction of the sciatic nerve according to Bennet et al. (Bennet, G. J. & Xie, Y-K., Pain 33: 87-107, 1988). The development of mechanical hyperalgesia is monitored using an established behavioral test analgesy meter or dynamic planter aesthesiometer.
# Pre-surgery baseline values are ascertained as the mean of 2 pre-surgery values. Once the baseline values are established, the animals are surgically prepared by constricting the left sciatic nerve with 4-0 chromic catgut loose ligatures. […]
# The design is randomized, performed in a masked fashion as to whether drug or vehicle is being given. […] On the testing day, 24 hours after administration period lapsed, the differences between ipsilateral and contralateral hind leg thresholds were measured in grams using the Dynamic planter aesthesiometer or analgesy meter (Ugo basile).
# Results are expressed as mean±SEM for each treatment group and the differences among those groups are analyzed by analysis of variance (ANOVA) followed by post-hoc analysis using Tukey's test. […]
# female BALB/c mice = experiment: Dextran Sulfate Salt (DSS)-induced acute colitis; type: in vivo, mouse; details: for % Survival / Clinical score / Percentage change in body weight: i.p.
# Excerpt: In order to test the activity of compounds of the invention in an animal model of inflammatory bowel disease, female BALB/c mice 9-12 week old (Harlan, Israel) were used for Dextran Sulfate Salt (DSS)-induced acute colitis studies. Mice (ten per treatment group) were provided with a solution of tap water containing 5% DSS (MW. 36000-50000; MP Biomedicals, LLC) ad libitum over an 8 day period. The DSS solution was replenished every other day and switched to tap water at day 8. Body weight was measured daily. The clinical scores combined both macroscopic (diarrhea, body weight, mortality) as well as microscopic (pathological) scores. Diarrhea score in the studies for each animal represented the daily summary of stool consistency (scored as: 0, normal; 1, soft but still formed; 2, very soft; 3, diarrhea) and the presence of blood in stool (scored: 0, None; 1, visible blood traces in stool; 2, signs of blood; 3, rectal bleeding). At the end of experiment animals were euthanized and their colons are examined for signs of pathological damage. The pathological scores, colon length and weight were determined from the cecum to the anus (scored: 0, normal; 1, slight inflammation; 2, moderate inflammation and/or edema; 3, heavy inflammation and/or ulceration and/or edema).
# Two compounds were tested in DSS-induced colitis in mice, compounds 4 and 58. […] Results are expressed as mean ± SEM for each treatment group and the differences among those groups are analyzed by T-test. Two crosshatches indicate a p value below 0.01 and three indicate a p value below 0.001. Asterisks denote statistical significant weight loss relative to animal weight in the beginning of the experiment.
# Alternatively, compound 58 (30 mg/kg) was administered orally from the first day of DSS administration (day 1) until the end of the experiment (day 10).
# Chain of human CB2 receptor (P34972 whole entry): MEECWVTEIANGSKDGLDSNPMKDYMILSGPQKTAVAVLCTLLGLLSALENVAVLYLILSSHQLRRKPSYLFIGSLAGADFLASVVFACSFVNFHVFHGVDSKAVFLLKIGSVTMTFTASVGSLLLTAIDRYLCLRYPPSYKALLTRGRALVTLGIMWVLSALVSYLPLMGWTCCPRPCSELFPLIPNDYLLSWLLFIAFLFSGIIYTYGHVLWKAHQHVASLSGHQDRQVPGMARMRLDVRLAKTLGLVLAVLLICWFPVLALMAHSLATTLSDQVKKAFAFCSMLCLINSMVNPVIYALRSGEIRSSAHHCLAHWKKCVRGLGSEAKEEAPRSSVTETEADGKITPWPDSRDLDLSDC
compound,measurement,setting,value
"COc1cc(Nc2ccc(S(=O)(=O)NCC3CC3)c(C(F)(F)F)c2)cc(OC)c1 [Compound 4, N-Cyclopropylmethyl-4-(3,5-dimethoxy-phenylamino)-2-trifluoromethyl-benzenesulfonamide]",Emax,"human CB2 receptor; Emax of compound divided by Emax of CP55940, read-out: % Activity (relative to CP55,940)",51%
same,Emax,"human CB2 receptor; upper plateau of [35S]GTPγS binding curve, read-out: Emax (%)",26%
same,reversal of pain threshold of injured paw,Male Sprague Dawley rats [1]; 10 mg/kg i.p.,50%
same,reversal of pain threshold of injured paw,Male Sprague Dawley rats [1]; 30 mg/kg i.p.,100%
same,reduction of the CCI induced hyperalgesia,Male Sprague Dawley rats [2],significant reduction
same,% Survival,female BALB/c mice; 20 mg/kg,90%
same,Clinical score,female BALB/c mice; 20 mg/kg,3.4 ± 0.7
same,Percentage change in body weight,female BALB/c mice; 20 mg/kg,−9.6 ± 1.59 %
same,% Survival,female BALB/c mice; 40 mg/kg,100%
same,Clinical score,female BALB/c mice; 40 mg/kg,3.1 ± 0.6
same,Percentage change in body weight,female BALB/c mice; 40 mg/kg,−5 ± 2.3 %
same,"efficacy in DSS-induced colitis (weight loss, clinical signs or gross pathology)",female BALB/c mice; administered intraperitoneally,modest efficacy
